Measured values reported in patent publication US20220340629A1, “Myosin Derived Peptides and Related Compounds with Anticoagulant Activities” (THE SCRIPPS RESEARCH INSTITUTE, priority 0001, published 2022).
Read-outs that look alike come from different tables or passages of the source. Non-standard residues stand in square brackets, D forms with d. Residues, ends and D or L forms follow the SMILES beside them. No end group written: not given here. *: point of attachment. Arachidoyl = CCCCCCCCCCCCCCCCCCCC(=O)*; NMeN = CN[C@@H](CC(N)=O)C(=O)O; Nle = CCCC[C@H](N)C(=O)O

What was measured:
[1] = target: skeletal muscle myosin-supported prothrombin activation by factors Xa and Va (Homo sapiens, UniProt P00742); assay: Assay 1A: prothrombin activation by factor Xa/factor Va/myosin in purified system; assay type: biochemical, human factors Xa and Va; rabbit skeletal muscle myosin
[2] = target: phospholipid-supported prothrombin activation by factors Xa and Va (Homo sapiens, UniProt P00742); assay: Assay 1C: phospholipid vesicle (PC/PS 80%/20%)-supported prothrombin activation; assay type: biochemical
[3] = Metabolite identification after incubation in mouse plasma; assay type: in vitro ADME; settings: incubated in mouse plasma, FIG. 8
[4] = tested on: thrombin generation in human platelet poor plasma with skeletal muscle myosin; assay: Assay 2A: thrombin generation, recalcification of human platelet poor plasma + myosin; assay type: biochemical
In short: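 Pooled normal human platelet-poor plasma (30%) preincubated 5 min at 37° C with 50 nM skeletal muscle myosin and peptide in DMSO. Coagulation triggered with 10 mmol/L CaCl2 plus fluorogenic Z-Gly-Gly-Arg-AMC; thrombin generation followed 25 min (ex 360/em 460 nm). IC50 = peptide concentration giving 50% inhibition of thrombin generation.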

[5] = tested on: thrombin generation in human whole blood; assay: Assay 4: thrombin generation in recalcified human whole blood; assay type: biochemical
Procedure: In addition to purified protein system and human plasma, assays using whole blood (Assay 4) were also performed to examine anti-coagulant activities of the peptides and derivative compounds. In these assays, freshly drawn anticoagulated human whole blood (80 μL aliquot) was incubated with peptide in DMSO or DMSO alone (control) for 5 min at 37° C. Then, fluorogenic thrombin substrate solution (Z-Gly-Gly-Arg-AMC) (I-1140) with 10 mmol/L CaCl2 (final) alone was added to the reaction mixture (total 110 μl) in 96 well plate to initiate coagulation. Thrombin generation was followed continuously for 25 min using SPECTRAmax GEMINI XS fluorometer (Molecular Devices, Sunnyvale, Calif.) with excitation and emission wavelengths set at 360 and 460 nm, respectively. The first derivative of fluorescence versus time was used to produce thrombin generation curves with the correction for substrate consumption and inner filter effect. IC50 were determined using a curve fit program in Prism7.0 (GraphPad Software, San Diego, Calif.).

[6] = tested on: skeletal muscle myosin-supported prothrombin activation by factors Xa and Va; assay: Assay 1A: prothrombin activation by factor Xa/factor Va/myosin in purified system; assay type: biochemical, human factors Xa and Va; rabbit skeletal muscle myosin
[7] = target: factor Xa (Homo sapiens, UniProt P00742); assay: Factor Xa peptide binding assay (immobilized peptide); settings: FIG. 2C; read-out: apparent Kd, factor Xa binding to immobilized peptide
Procedure: Factor Xa Peptide Binding Assays: Peptide HC796-835 at 10 μg/mL in sodium bicarbonate (pH 9.3) was coated onto the wells of microtiter plates and then blocked with 5% fatty acid free BSA in TBS. After washing the plate with TBSA containing 5 mM CaCl2, various concentrations of factor Xa in binding buffer consisting of TBSA containing 5 mM CaCl2 were incubated in plate wells for 1 h at room temperature. Following 3 washings, bound factor Xa was detected by adding chromogenic substrate for factor Xa (S2222, Chromogenix, Franklin, Ohio). The absorbance values observed for triplicate noncoated wells lacking peptides served as nonspecific controls for binding and were subtracted from observed values for corresponding duplicate peptide-coated wells. Nonspecific binding of Factor Xa ranged from 5 to 20% of total observed binding in various experiments.
Statistical analysis: Apparent Kd values using saturation binding curve fit were performed using Prism™ 7.0 software (Graph Pad Software Inc., San Diego, Calif.).

[8] = tested on: thrombin generation in human plasma; assay: Thrombin generation assay in pooled normal human plasma (Examples 3 and 4); assay type: biochemical
Procedure: Thrombin generation assay in pooled human plasma: The effect of synthetic peptides on thrombin generation in pooled normal human plasma (George King Bio-medical, Inc., Overland Park, KS) was tested as described (1,11). Briefly, normal human plasma (30 μl) was mixed with CTI, followed by the addition of peptide. Then, tissue factor (TF) (Innovin) (0.5[…] pM final) containing 30 mM Ca^++ in TBSA with fluorogenic thrombin substrate solution (I-1140) (Bachem Americas, Inc., Torrance, Calif.) were added to the plasma to initiate coagulation activation. The first derivative of the time course data for substrate hydrolysis yielded the thrombin generation curve, allowing measurement of thrombin generation during the initiation, propagation and termination phases of thrombin generation and the value for peak thrombin generated.

[9] = target: T1, cardiac myosin-enhanced prothrombin activation by factors Xa and Va (Homo sapiens, UniProt P00742); assay: Cardiac myosin-enhanced prothrombin activation; assay type: biochemical; settings: peptide 0 to 12.5 μM, cardiac myosin 2 nM, FIG. 17
T1 construct: factor Va (5 nM, final) and factor Xa (0.2 nM, final)
Procedure: Varying concentrations of peptide HC796-835 (SEQ ID NO:21), ranging from 0 to 12.5 μM, were incubated with factor Va (5 nM, final) and factor Xa (0.2 nM, final) in Tris buffered saline containing bovine serum albumin (TBSA) plus 5 mM CaCl2 at room temperature in the presence of cardiac myosin (2 nM, final). Thrombin generation was initiated by the addition of prothrombin (0.75 μM) in TB SA containing 5 mM CaCl2. The reaction was quenched by adding EDTA (10 mM final) at 10 min. The rate of thrombin formation was quantified by measuring thrombin concentration as the rate of thrombin substrate hydrolysis. 100% was the value for controls in the absence of added peptides. Each value represents the mean [±SEM] of triplicate determinations.

[10] = target: T2, Human factor Xa (human, UniProt P00742 41-179; P00742 235-488, limits assumed); assay: cell-based or functional assay
[11] = target: T2, Human factor Xa; assay: cell-based or functional assay; remark: listed apart in the source
[12] = purified system, skeletal muscle myosin, factor Va 5 nM, factor Xa 0.2 nM, prothrombin 0.75 μM, 10 min, read-out: 1A (+myosin)
[13] = human platelet poor plasma 30%, myosin 50 nM, CaCl2 10 mmol/L, read-out: 2A (recalcification +myosin)

Sequence of skeletal muscle myosin-supported prothrombin activation by factors Xa and Va (Homo sapiens, UniProt P00742) (P00742 41-179): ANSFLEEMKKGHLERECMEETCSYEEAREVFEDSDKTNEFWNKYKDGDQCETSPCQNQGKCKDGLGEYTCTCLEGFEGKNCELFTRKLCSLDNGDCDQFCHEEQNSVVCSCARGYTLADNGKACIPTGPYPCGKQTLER
Sequence of skeletal muscle myosin-supported prothrombin activation by factors Xa and Va (Homo sapiens, UniProt P00742) (P00742 235-488): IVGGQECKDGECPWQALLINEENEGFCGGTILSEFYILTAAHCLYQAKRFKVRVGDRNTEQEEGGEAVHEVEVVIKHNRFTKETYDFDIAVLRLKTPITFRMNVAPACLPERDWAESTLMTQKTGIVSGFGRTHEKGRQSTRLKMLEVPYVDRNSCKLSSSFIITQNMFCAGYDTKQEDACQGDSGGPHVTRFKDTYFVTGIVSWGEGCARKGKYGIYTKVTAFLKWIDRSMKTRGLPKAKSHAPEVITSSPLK
Sequence of skeletal muscle myosin-supported prothrombin activation by factors Xa and Va (Homo sapiens, UniProt P00742) (P12259 29-737 partner): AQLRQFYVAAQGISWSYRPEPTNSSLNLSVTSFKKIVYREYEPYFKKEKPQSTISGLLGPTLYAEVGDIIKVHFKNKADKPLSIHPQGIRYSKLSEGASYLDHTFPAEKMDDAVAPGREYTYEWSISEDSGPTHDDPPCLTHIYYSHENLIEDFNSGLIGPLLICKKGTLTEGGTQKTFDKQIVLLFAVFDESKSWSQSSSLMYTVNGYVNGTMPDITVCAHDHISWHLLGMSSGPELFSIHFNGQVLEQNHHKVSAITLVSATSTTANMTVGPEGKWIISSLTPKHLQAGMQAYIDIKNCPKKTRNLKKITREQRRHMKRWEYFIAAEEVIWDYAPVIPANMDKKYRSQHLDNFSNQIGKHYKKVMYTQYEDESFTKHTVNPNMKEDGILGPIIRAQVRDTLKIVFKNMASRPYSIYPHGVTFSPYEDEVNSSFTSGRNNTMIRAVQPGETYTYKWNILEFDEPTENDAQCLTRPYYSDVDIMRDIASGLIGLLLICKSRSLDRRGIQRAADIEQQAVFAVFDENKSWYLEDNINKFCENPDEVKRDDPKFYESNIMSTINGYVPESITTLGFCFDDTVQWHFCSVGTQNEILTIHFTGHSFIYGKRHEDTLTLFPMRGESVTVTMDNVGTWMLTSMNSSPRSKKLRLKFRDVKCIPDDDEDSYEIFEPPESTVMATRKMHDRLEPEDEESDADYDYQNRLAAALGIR
Sequence of skeletal muscle myosin-supported prothrombin activation by factors Xa and Va (Homo sapiens, UniProt P00742) (P12259 1574-2224 partner): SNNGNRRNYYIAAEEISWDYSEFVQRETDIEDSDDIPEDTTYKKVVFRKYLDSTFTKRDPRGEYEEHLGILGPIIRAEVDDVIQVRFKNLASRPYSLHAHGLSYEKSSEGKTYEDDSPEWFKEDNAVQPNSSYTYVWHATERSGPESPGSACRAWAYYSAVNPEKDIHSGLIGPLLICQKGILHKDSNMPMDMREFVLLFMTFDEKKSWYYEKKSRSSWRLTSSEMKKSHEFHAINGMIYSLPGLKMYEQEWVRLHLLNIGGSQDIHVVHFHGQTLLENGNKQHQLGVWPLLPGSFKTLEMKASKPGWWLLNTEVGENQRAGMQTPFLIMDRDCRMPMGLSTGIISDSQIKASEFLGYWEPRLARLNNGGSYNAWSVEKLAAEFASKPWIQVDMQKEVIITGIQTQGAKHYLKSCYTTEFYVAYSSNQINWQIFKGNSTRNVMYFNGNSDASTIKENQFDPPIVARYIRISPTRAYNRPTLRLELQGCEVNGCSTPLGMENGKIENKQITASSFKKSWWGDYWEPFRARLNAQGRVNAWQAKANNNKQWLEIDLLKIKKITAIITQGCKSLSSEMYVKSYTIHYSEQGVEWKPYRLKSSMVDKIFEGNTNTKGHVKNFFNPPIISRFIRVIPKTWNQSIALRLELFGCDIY
Sequence of phospholipid-supported prothrombin activation by factors Xa and Va (P00742 41-179 limits assumed): as the sequence (P00742 41-179) above
Sequence of phospholipid-supported prothrombin activation by factors Xa and Va (P00742 235-488 limits assumed): as the sequence (P00742 235-488) above
T2 sequence (P00742 41-179 limits assumed, form in doubt, chain 1 of 2): as the sequence (P00742 41-179) above
T2 sequence (P00742 235-488 limits assumed, form in doubt, chain 2 of 2): as the sequence (P00742 235-488) above
T1 sequence (P00742 41-179 limits assumed): as the sequence (P00742 41-179) above
T1 sequence (P00742 235-488 limits assumed): as the sequence (P00742 235-488) above

With CC[C@H](C)[C@H](NC(=O)[C@H](C)N)C(=O)N[C@@H](Cc1ccccc1)C(=O)N[C@@H](CS)C(=O)N[C@H](C(=O)N[C@@H](CCC(N)=O)C(=O)N[C@@H](Cc1ccc(O)cc1)C(=O)N[C@@H](CC(N)=O)C(=O)N[C@H](C(=O)N[C@@H](CCCNC(=N)N)C(=O)N[C@@H](CO)C(=O)N[C@@H](Cc1ccccc1)C(=O)N[C@@H](CCSC)C(=O)N[C@@H](CC(N)=O)C(=O)N[C@H](C(=O)N[C@@H](CCCCN)C(=O)N[C@@H](Cc1c[nH]cn1)C(=O)N[C@@H](Cc1c[nH]c2ccccc12)C(=O)N1CCC[C@H]1C(=O)N[C@@H](Cc1c[nH]c2ccccc12)C(=O)N[C@@H](CCSC)C(=O)N[C@@H](CCCCN)C(N)=O)C(C)C)[C@@H](C)CC)[C@@H](C)CC [HC060] (H-AIFCIQYNIRSFMNVKHWPWMK-NH2) the IC50 [1, 12] was 1100 nM, the “1C (+phospholipid)” value ([2]; phospholipid vesicle 4 μM, PS 20%/PC 80%, result in words) was “No activity” and the “sites of protease cleavage identified from metabolite identification” value [3] was “six”.

In the case of CCCC[C@H](NC(=O)[C@H](Cc1c[nH]c2ccccc12)NC(=O)[C@@H]1CCCN1C(=O)[C@H](Cc1c[nH]c2ccccc12)NC(=O)[C@H](Cc1c[nH]cn1)NC(=O)[C@H](CCCCN)NC(=O)[C@@H](NC(=O)[C@H](CC(N)=O)NC(=O)[C@H](CCCC)NC(=O)[C@H](Cc1ccccc1)NC(=O)[C@H](CO)NC(=O)[C@H](CCCNC(=N)N)NC(=O)[C@@H](NC(=O)[C@H](CC(N)=O)NC(=O)[C@H](Cc1ccc(O)cc1)NC(=O)[C@H](CCC(N)=O)NC(=O)[C@@H](NC(=O)[C@@H](NC(=O)[C@H](Cc1ccccc1)NC(=O)[C@@H](NC(=O)[C@H](C)N)[C@@H](C)CC)[C@@H](C)O)[C@@H](C)CC)[C@@H](C)CC)C(C)C)C(=O)N[C@@H](CCCCN)C(N)=O [HC179] (H-AIFTIQYNIRSF[Nle]NVKHWPW[Nle]K-NH2; N-terminus assumed), the IC50 [1, 12] is reported as 400 nM, the IC50 [4, 13] is reported as 8300 nM and the “4 (recalcification), result in words” value ([5]; result in words) is reported as “No activity”.

With CC[C@H](C)[C@H](NC(=O)[C@H](C)NC(=O)[C@H](CCC(=O)O)NC(=O)[C@H](CCCNC(=N)N)NC(=O)[C@H](CCCNC(=N)N)NC(=O)[C@H](CCC(=O)O)NC(=O)[C@@H](NC(=O)[C@H](CCSC)NC(=O)[C@H](CCCNC(=N)N)NC(=O)[C@H](CCC(N)=O)NC(=O)[C@H](Cc1ccc(O)cc1)NC(=O)[C@H](CCC(=O)O)NC(=O)[C@@H](NC(=O)[C@H](CCCNC(=N)N)NC(=O)[C@H](C)NC(=O)[C@H](CC(C)C)NC(=O)[C@H](Cc1ccccc1)NC(=O)CNC(=O)[C@H](CCCNC(=N)N)NC(=O)[C@H](CS)NC(=O)[C@H](CCCNC(=N)N)NC(=O)[C@H](C)N)C(C)C)C(C)C)C(=O)N[C@@H](Cc1ccccc1)C(=O)N[C@@H](CS)C(=O)N[C@H](C(=O)N[C@@H](CCC(N)=O)C(=O)N[C@@H](Cc1ccc(O)cc1)C(=O)N[C@@H](CC(N)=O)C(=O)N[C@H](C(=O)N[C@@H](CCCNC(=N)N)C(=O)N[C@@H](CO)C(=O)N[C@@H](Cc1ccccc1)C(=O)N[C@@H](CCSC)C(=O)N[C@@H](CC(N)=O)C(=O)N[C@H](C(=O)N[C@@H](CCCCN)C(=O)N[C@@H](Cc1c[nH]cn1)C(=O)N[C@@H](Cc1c[nH]c2ccccc12)C(=O)N1CCC[C@H]1C(=O)N[C@@H](Cc1c[nH]c2ccccc12)C(N)=O)C(C)C)[C@@H](C)CC)[C@@H](C)CC [HC796-835] (H-ARCRGFLARVEYQRMVERREAIFCIQYNIRSFMNVKHWPW-NH2) the IC50 ([1]; FIG. 5, read-out: IC50, prothrombin activation by factor Xa/factor Va/myosin in purified system) was 1300 nM, the IC50 ([6]; dose-dependency assays, FIG. 2A, myosin 2 nM, read-out: IC50, inhibition of myosin-supported prothrombin activation) was 1200 nM and the “inhibition of myosin-supported prothrombin activation at 5 μM” value ([6]; peptide 5 μM, FIG. 1A) was “inhibitory, to varying degrees”. For the same molecule, the “inhibition of myosin-supported prothrombin activation at 100 μM” value ([6]; peptide 100 μM, FIG. 1A) was “inhibited”, the “inhibitory effects on phospholipid-supported prothrombin activation” value ([2]; compared with effects on myosin-supported prothrombin activation) was “not apparent” and the “1C (+phospholipid)” value ([2]; purified system, phospholipid vesicles) was “No activity”. For the same molecule, the IC50 ([4]; human plasma, recalcification, myosin present, read-out: 2A (recalcification +myosin) IC50) was 3800 nM, the “4 (recalcification) IC50” value ([5]; recalcification) was “No activity” and the Kd [7] was 1400 nM. For the same molecule, the IC50 ([8]; FIG. 3B, peptide 0-25 μM, read-out: IC50, inhibition of thrombin generation in plasma) was about 5500 nM, the “inhibition of thrombin generation in human plasma” value ([8]; screened at 25 μM, FIG. 3A) was “significantly inhibited” and the “inhibition of cardiac myosin-enhanced prothrombin activation” value [9] was “inhibition”.

For CCCCCCCCCCCCCCCCCCCC(=O)NCCCC[C@H](NC(=O)[C@H](CCCNC(=N)N)NC(=O)[C@@H](NC(=O)[C@H](CC(N)=O)NC(=O)[C@H](Cc1ccc(O)cc1)NC(=O)[C@H](CCC(N)=O)NC(=O)[C@@H](NC(=O)[C@H](CO)NC(=O)[C@H](Cc1ccccc1)NC(=O)[C@@H](NC(=O)[C@H](C)N)[C@@H](C)CC)[C@@H](C)CC)[C@@H](C)CC)C(=O)N[C@@H](Cc1ccccc1)C(=O)N[C@@H](CCCC)C(=O)N(C)[C@@H](CC(N)=O)C(=O)N[C@H](C(=O)N[C@@H](CCCCN)C(=O)N[C@@H](Cc1c[nH]cn1)C(=O)N[C@@H](Cc1c[nH]c2ccccc12)C(=O)N1CCC[C@H]1C(=O)N[C@@H](Cc1c[nH]c2ccccc12)C(=O)N[C@@H](CCCC)C(=O)N[C@@H](CCCCN)C(=O)N[C@@H](CCCCN)C(=O)N[C@@H](CCCCN)C(=O)N[C@@H](CCCCN)C(=O)N[C@@H](CCCCN)C(N)=O)C(C)C [SL-1504-074A, AIFSIQYNIRXF(Nle)(N-MeN)VKHWPW(Nle)KKKKK] (H-AIFSIQYNIRK(Arachidoyl)F[Nle][NMeN]VKHWPW[Nle]KKKKK-NH2), the IC50 [4, 13] was 1700 nM and the IC50 ([5]; CaCl2 10 mmol/L, read-out: 4 (recalcification)) was 300 to 4000 nM.

B1: Peptide HC796-835 (human skeletal muscle myosin heavy chain MYH2 residues 796-835) (peptide)
peptide: ARCRGFLARVEYQRMVERREAIFCIQYNIRSFMNVKHWPW-NH2
modifications: cysteine pairing not given here
notes: Synthetic 40-mer; also called HC061
For B1, the “IC50, inhibition of myosin-supported prothrombin activation by purified factor Xa, factor Va and Ca++ ions” value [10] was 1200 nM and the “IC50, Assay 1A (+myosin): prothrombin activation by factor Xa/factor Va/myosin in purified system” value [11] was 1300 nM.
